Experimental data reported in patent publication US11541056B2, “3-hydroxy-N-(3-(7H-pyrrolo[2,3-d]pyrimidin-4-yl)phenyl)pyrrolidine-1-carboxamide derivatives” (NOVARTIS AG, priority 2018, dated 2023).

Experiments:
Assay type in all cases: cell-based
BTK-GFP = target: T1, BTK-GFP (Homo sapiens, UniProt Q06187+Q96SW2); assay: BTK-GFP protein abundance flow cytometry assay in HEK293A cells; conditions: 24 h; for BTK deg Amax %: % protein remaining at concentration of maximum degradation; for DC50: concentration at which 50% maximal degradation was observed
T1 construct: the BTK open reading frame (ORF) was first shuttled from a pcDNA-DEST40-BTK vector (Invitrogen library ID INV_20090504v1); expressed in transfected cells; host or cells: HEK293A cells (Invitrogen R70507), lentiviral transduction with pLenti6-BTK-GFP-Ires-RFP, blasticidin-selected
Procedure: (§1) Compounds of the invention were tested in the following cellular assays. The terms in Table 1 are defined as follows: DC50 refers to the concentration at which 50% maximal degradation was observed; deg Amax is the extent of degradation and the value refers to the % protein remaining at the concentration at which maximum degradation is seen; Prol GI50 refers to the proliferation data and defines the concentration at which 50% growth inhibition was observed compared to the vehicle treated control at the end of the incubation time. TMD8 cells are BTK dependent and OCI-LY3 cells are BTK independent.
(§2) BTK-GFP and IKZF3-GFP Protein Abundance Flow Cytometry Assay in HEK293A Cells:
(§3) Degradation of BTK or IKZF3 was measured in HEK293A cells (Invitrogen R70507) expressing either BTK-GFP and RFP or IKZF3-GFP and RFP from a stably integrated bicistronic BTK-GFP-iresRFP or IKZF3-GFP-iresRFP construct, respectively. Reduction of the GFP signal measured by flow cytometry served as readout for BTK or IKZF3 degradation after degrader treatment.
(§4) Stable HEK293A-BTK-GFP-iresRFP cells were maintained in complete growth medium (DMEM high Glucose+10% FCS+1% L-Glutamine+1% NEAA+1% NaPyr.) with passaging performed twice per week. On Day 0, HEK293A-BTK-GFP-iresRFP or HEK293A-IKZF3-GFP-iresRFP and HEK293A-iresRFP cells were seeded at 10,000 cells/well in a 96-well microtiter plate in 260 μl complete medium. On Day 1, cells were treated in duplicate with 10-point 1:3 dilution series of compound using the HP D300 Digital Dispenser (Tecan). DMSO concentrations were normalized across the plate to 0.1%. On Day 2, after 24 h of incubation at 37° C., treatment media was discarded, cells rinsed with 100 ul/well PBS and then detached using 40 ul trypsin/well for 5 min. Trypsin was neutralized with 100 ul/well PBS+20% FCS). Flow cytometry was performed on the samples using the BD FACS CANTO II (Becton Dickinson). Cell identification was then performed using forward (FSC) vs. side scatter (SSC) plots. Single cell discrimination is performed using SSC-Width (SSC-W) vs. SSC-Height (SSC-H) plots. Median GFP values for 5,000 single cells are used to determine BTK levels. Median GFP values from HEK293A-iresRFP are used as a background signal and thus defining 0% BTK signal. Median GFP values from DMSO treated HEK293A-BTK-GFP-iresRFP or HEK293A-IKZF3-GFP-iresRFP are used to define 100% BTK signal for subsequent DC50 curves (concentration at 50% BTK degradation). GFP and RFP are read in the channels called FITC and PE, respectively.
(§5) Concentration response curves plotting relative reduction of the GFP signal (measured by flow cytometry) versus 10 compound concentrations (starting concentration 10 μM, 3 fold dilution steps) of the compounds allowed generation of DC50 values.

OCI-LY3 cells = assay: Resazurin cell viability assay in DLBCL cells (OCI-LY3); conditions: Homo sapiens, OCI-Ly3, 72 h, OCI-LY3 cells (BTK independent), 50% growth inhibition, read-out: OCI-LY3 Prol GI50
Procedure: as §1
(§6) Cell Viability Assay in DLBCL (Diffuse Large B-Cell Lymphoma) Cells:
(§7) The effect of the BTK compounds on cell proliferation was measured by a Resazurin (Sigma, #R7017) based cell viability assay. TMD8 (BTK compound sensitive) and OCI-LY3 (BTK compound insensitive) cells were incubated for 72 h at 37° C. and 5% CO2 with the corresponding compound. Resazurin is a non-toxic, cell-permeable substrate that is virtually non-fluorescent. Upon entering living cells, Resazurin (Sigma, #R7017) is reduced to highly fluorescent Resorufin. The metabolic activity was assessed by measuring the fluorescence signal (ex. 530 nm; em. 600 nm).
(§8) TMD8 and OCI-Ly3 cells were seeded at day 0 in triplicates at a cell density of 1×10^4 cells per 150 μl/well in a 96-well plate (Costar #3904). Additional plates were prepared, in order to assess the basal metabolic activity of both cell lines at the beginning of the experiment. For these reference plates, Resazurin (Sigma, #R7017) was added to a final concentration of 13 μg/ml 3 h post seeding and was incubated for 2 h at 37° C. and 5% CO2. Following incubation, the fluorescent signal intensity of the 96-well plates was measured on a Mithras LB940 multimode plate reader at 530/600 nm (Berthold Technologies, Germany).
(§9) In parallel, 3 h post-seeding, test-plates were treated with compound at various concentrations, or with vehicle (DMSO) alone for 3 days. The compound addition to the plates was performed by using a HP D300 digital dispenser (TECAN, Switzerland). The compounds were tested in triplicate, 8-point serial dilution (1:4), with a start concentration of 10 μM for OCI-LY3 and 1 μM for the TMD8 cells, respectively. To assess the relative proliferation of the cells, Resazurin was added to each well directly to the medium to a final concentration of 13 μg/ml. The plates were incubated for 2 h at 37° C. and 5% CO2 to result in a 72 h endpoint. Following incubation, the fluorescent signal intensity of the 96-well plates were measured on a Mithras LB940 multimode plate reader at 530/600 nm (Berthold Technologies, Germany). The formation of Resorufin dye directly correlates with the number of metabolically active cells. For each triplicate treatment the mean and standard deviation were calculated and analyzed via curve fitting software to determine the respective compound concentration resulting in 50% growth inhibition (GI50) values. For each compound GI50 values were typically determined from at least 2 entirely independent experiments.
OCI-LY3 cells were acquired through a license agreement with University Health Network, Toronto, Canada. Cells are cultivated in RPMI1640 media (Gibco, #61870-010, lot. 1894759), supplemented with 10% FCS (HyClone, GE #SH30066.03, lot AB217603), 2 mM L-Glutamine (BioConcept, #5-10K50-H, lot. LA03467P), 1 mM Sodium Pyruvate (BioConcept, #5-60F00-H, lot. LB10510P), 10 mM HEPES (Gibco, #15630-056, lot. 1854074), 1% Pen/Strep (BioConcept, #4-01F00-H, lot. LB04235P).

IKZF3-GFP = target: T2, IKZF3-GFP (Homo sapiens, UniProt Q9UKT9); assay: IKZF3-GFP protein abundance flow cytometry assay in HEK293A cells; conditions: 24 h, Table 1
T2 construct: gateway cloning of IKZF3 from a pENTR221-IKZF3(STOP-Leu) construct into the previously described pLenti6-DEST-GFP-Ires-RFP vector; expressed in transfected cells; host or cells: HEK293A cells (Invitrogen R70507), lentiviral transduction with pLenti6-IKZF3-GFP-Ires-RFP, blasticidin-selected
Procedure: Compounds of the invention were tested in the following cellular assays. […] TMD8 cells are BTK dependent and OCI-LY3 cells are BTK independent.
as §2, §3, §4, §5
Data is shown in Table 2, in which, DC50 refers to the concentration at which 50% maximal degradation was observed; deg Amax is the extent of degradation and the value refers to the % protein remaining at the concentration at which maximum degradation is seen.

TMD8 cells = assay: Resazurin cell viability assay in DLBCL cells (TMD8); conditions: Homo sapiens, TMD8, 72 h, TMD8 cells (BTK dependent), 50% growth inhibition, read-out: TMD8 Prol GI50
Procedure: as §1, §6, §7, §8, §9
TMD8 cells were acquired through a license agreement with Tokyo Medical and Dental University, Japan. Cells are cultivated in MEM Alpha (BioConcept, #1-23F01-I, lot. LB04262P) supplemented with 10% FCS (HyClone, GE #SH30066.03, lot AB217603), 2 mM L-Glutamine (BioConcept, #5-10K50-H, lot. LA03467P), 1% Pen/Strep (BioConcept, #4-01F00-H, lot. LB04235P).

T1 sequence (Q06187 whole entry): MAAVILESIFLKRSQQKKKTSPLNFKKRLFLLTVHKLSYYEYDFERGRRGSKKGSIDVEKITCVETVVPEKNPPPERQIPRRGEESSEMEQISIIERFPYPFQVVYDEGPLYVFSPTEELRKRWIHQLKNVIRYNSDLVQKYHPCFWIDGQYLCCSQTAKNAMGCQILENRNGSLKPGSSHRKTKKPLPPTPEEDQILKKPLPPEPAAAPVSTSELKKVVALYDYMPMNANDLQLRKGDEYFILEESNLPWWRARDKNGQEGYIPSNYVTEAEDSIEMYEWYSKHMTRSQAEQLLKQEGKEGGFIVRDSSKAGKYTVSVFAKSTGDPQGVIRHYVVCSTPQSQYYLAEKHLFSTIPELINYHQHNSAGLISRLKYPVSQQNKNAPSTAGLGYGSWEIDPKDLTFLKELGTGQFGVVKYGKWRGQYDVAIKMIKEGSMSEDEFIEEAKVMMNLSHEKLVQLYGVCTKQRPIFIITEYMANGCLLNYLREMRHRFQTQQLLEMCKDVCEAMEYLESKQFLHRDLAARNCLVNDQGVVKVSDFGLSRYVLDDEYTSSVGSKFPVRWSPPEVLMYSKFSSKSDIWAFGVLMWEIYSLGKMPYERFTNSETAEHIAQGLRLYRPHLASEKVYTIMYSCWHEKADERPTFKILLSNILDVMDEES
T1 sequence (Q96SW2 whole entry): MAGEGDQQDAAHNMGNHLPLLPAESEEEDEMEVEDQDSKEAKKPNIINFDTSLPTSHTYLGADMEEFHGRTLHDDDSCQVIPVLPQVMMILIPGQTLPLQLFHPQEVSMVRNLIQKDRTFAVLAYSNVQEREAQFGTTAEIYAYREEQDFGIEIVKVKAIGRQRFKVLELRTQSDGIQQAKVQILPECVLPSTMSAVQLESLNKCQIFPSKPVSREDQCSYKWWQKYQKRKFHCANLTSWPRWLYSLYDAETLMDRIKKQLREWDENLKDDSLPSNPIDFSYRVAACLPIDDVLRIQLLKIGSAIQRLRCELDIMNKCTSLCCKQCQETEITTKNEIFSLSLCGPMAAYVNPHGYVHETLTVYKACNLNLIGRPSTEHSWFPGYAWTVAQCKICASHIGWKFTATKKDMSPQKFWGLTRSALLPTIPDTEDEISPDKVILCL
T1 sequence (Q16531 whole entry partner): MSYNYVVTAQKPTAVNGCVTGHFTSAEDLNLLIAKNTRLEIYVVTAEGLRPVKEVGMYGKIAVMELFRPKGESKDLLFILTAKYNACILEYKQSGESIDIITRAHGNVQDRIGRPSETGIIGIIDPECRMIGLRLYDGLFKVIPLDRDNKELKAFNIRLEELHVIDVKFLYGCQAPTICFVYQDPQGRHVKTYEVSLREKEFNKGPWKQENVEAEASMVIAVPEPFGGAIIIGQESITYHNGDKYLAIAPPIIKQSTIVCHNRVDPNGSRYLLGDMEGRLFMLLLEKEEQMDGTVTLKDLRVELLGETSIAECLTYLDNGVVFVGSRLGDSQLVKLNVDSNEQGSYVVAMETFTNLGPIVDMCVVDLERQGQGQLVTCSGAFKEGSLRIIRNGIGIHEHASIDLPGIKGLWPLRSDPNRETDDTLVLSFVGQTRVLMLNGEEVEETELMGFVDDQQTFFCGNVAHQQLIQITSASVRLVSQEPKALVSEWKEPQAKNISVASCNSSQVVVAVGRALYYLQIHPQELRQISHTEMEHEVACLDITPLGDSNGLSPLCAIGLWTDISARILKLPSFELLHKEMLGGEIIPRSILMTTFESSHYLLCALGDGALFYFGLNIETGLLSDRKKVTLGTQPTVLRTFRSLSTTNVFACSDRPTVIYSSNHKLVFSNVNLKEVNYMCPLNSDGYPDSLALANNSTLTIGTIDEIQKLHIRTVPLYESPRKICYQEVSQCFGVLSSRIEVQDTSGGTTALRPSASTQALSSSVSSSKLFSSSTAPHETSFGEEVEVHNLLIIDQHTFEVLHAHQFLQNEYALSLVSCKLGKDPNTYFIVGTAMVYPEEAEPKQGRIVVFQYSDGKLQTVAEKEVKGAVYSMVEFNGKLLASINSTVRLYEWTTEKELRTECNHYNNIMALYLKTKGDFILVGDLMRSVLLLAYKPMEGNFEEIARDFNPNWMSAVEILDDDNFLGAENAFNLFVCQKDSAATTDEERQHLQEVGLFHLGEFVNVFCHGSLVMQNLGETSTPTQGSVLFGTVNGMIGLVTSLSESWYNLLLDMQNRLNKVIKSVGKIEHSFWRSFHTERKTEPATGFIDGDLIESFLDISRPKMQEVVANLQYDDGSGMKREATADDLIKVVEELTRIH
T2 sequence (Q96SW2 whole entry partner): as the sequence (Q96SW2 whole entry) above
T2 sequence (Q16531 whole entry partner): as the sequence (Q16531 whole entry partner) above
T2 sequence (Q9UKT9 whole entry): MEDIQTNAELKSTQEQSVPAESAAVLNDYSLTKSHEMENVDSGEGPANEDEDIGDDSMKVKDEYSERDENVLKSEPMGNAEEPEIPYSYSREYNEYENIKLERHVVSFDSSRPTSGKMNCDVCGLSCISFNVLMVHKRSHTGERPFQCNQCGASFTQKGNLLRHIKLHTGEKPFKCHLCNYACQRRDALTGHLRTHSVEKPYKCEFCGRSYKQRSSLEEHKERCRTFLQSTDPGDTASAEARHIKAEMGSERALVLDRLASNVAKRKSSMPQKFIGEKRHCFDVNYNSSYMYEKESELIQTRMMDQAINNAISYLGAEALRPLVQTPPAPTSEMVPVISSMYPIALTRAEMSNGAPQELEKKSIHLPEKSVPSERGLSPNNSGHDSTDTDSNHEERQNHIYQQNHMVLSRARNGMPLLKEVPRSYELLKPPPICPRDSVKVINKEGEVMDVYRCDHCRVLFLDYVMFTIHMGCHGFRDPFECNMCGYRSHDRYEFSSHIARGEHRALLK

| Compound | BTK deg Amax % (BTK-GFP) [%] | DC50 (BTK-GFP) [nM] | GI50 (OCI-LY3 cells) [nM] | IKZF3 deg Amax % (IKZF3-GFP; % protein remaining at maximum degradation) [%] | DC50 (IKZF3-GFP) [nM] | GI50 (TMD8 cells) [nM] |
| --- | --- | --- | --- | --- | --- | --- |
| COc1ccc(C(=O)N2CCC(CN3CCN(Cc4ccc(-c5cc6c(-c7cc(F)cc(NC(=O)N8C[C@@H](CC(C)C)[C@H](O)C8)c7C)ncnc6[nH]5)cc4)CC3)CC2)cc1N1CCC(=O)NC1=O [Compound 10, (3S,4R)—N-(3-(6-(4-((4-((1-(3-(2,4-Dioxotetrahydropyrimidin-1(2H)-yl)-4-methoxybenzoyl)piperidin-4-yl)methyl)piperazin-1-yl)methyl)phenyl)-7H-pyrrolo[2,3-d]pyrimidin-4-yl)-5-fluoro-2-methylphenyl)-3-hydroxy-4-isobutylpyrrolidine-1-carboxamide] | 7.4 | 15.5 | 4080 | 99.3 | > 370 | 2.31 |
| COc1ccc(C(=O)N2CCC(CN3CCC(COc4ccc(-c5cc6c(-c7cc(F)cc(NC(=O)N8C[C@H](CC(C)C)[C@@H](O)C8)c7C)ncnc6[nH]5)cc4)CC3)CC2)cc1N1CCC(=O)NC1=O [Compound 14, (3R,4S)—N-(3-(6-(4-((1-((1-(3-(2,4-Dioxotetrahydropyrimidin-1 (2H)-yl)-4-methoxybenzoyl)piperidin-4-yl)methyl)piperidin-4-yl)methoxy)phenyl)-7H-pyrrolo[2,3-d]pyrimidin-4-yl)-5-fluoro-2-methylphenyl)-3-hydroxy-4-isobutylpyrrolidine-1-carboxamide] | 3.4 | 0.7 | 3820 |  |  | 0.24 |
| CCOc1ccc(C(=O)N2CCC3(CCN(CCc4ccc(-c5cc6c(-c7cc(F)cc(NC(=O)N8C[C@H](CC(C)C)[C@@H](O)C8)c7C)ncnc6[nH]5)cc4)CC3)CC2)cc1N1CCC(=O)NC1=O [Compound 16, (3R,4S)—N-(3-(6-(4-(2-(9-(3-(2,4-dioxotetrahydropyrimidin-1(2H)-yl)-4-ethoxybenzoyl)-3,9-diazaspiro[5.5]undecan-3-yl)ethyl)phenyl)-7H-pyrrolo[2,3-d]pyrimidin-4-yl)-5-fluoro-2-methylphenyl)-3-hydroxy-4-isobutylpyrrolidine-1-carboxamide] | 19 | 4.7 | 5220 |  |  | 0.26 |
| COc1ccc(C(=O)N2CCC3(CCN(CCc4ccc(-c5cc6c(-c7ccc(F)c(NC(=O)N8C[C@H](CC(C)C)[C@@H](O)C8)c7C)ncnc6[nH]5)cc4)CC3)CC2)cc1N1CCC(=O)NC1=O [Compound 17, (3R,4S)—N-(3-(6-(4-(2-(9-(3-(2,4-dioxotetrahydropyrimidin-1(2H)-yl)-4-methoxybenzoyl)-3,9-diazaspiro[5.5]undecan-3-yl)ethyl)phenyl)-7H-pyrrolo[2,3-d]pyrimidin-4-yl)-6-fluoro-2-methylphenyl)-3-hydroxy-4-isobutylpyrrolidine-1-carboxamide] | 4 | 5.5 | > 10000 |  |  | 0.49 |
| COc1ccc(C(=O)N2CCC(OCCN3CCC(Oc4ccc(-c5cc6c(-c7cc(F)cc(NC(=O)N8C[C@H](CC(C)C)[C@@H](O)C8)c7C)ncnc6[nH]5)cc4)CC3)CC2)cc1N1CCC(=O)NC1=O [Compound 20, (3R,4S)—N-(3-(6-(4-((1-(2-((1-(3-(2,4-Dioxotetrahydropyrimidin-1(2H)-yl)-4-methoxybenzoyl)piperidin-4-yl)oxy)ethyl)piperidin-4-yl)oxy)phenyl)-7H-pyrrolo[2,3-d]pyrimidin-4-yl)-5-fluoro-2-methylphenyl)-3-hydroxy-4-isobutylpyrrolidine-1-carboxamide] | 2.4 | 1.1 | 3700 |  |  | 0.29 |
| COc1ccc(C(=O)N2CCC(CCN3CCC(OCc4ccc(-c5cc6c(-c7cc(F)cc(NC(=O)N8C[C@@H](CC(C)C)[C@H](O)C8)c7C)ncnc6[nH]5)cc4)CC3)CC2)cc1N1CCC(=O)NC1=O [Compound 21, (3S,4R)—N-(3-(6-(4-(((1-(2-(1-(3-(2,4-Dioxotetrahydropyrimidin-1 (2H)-yl)-4-methoxybenzoyl)piperidin-4-yl)ethyl)piperidin-4-yl)oxy)methyl)phenyl)-7H-pyrrolo[2,3-d]pyrimidin-4-yl)-5-fluoro-2-methylphenyl)-3-hydroxy-4-isobutylpyrrolidine-1-carboxamide] | 4 | 15.6 | 3600 |  |  | 1.17 |
